How the values were obtained:
sedge, umbrella = assay: Test B flooded paddy test; type: in vivo, Cyperus difformis; conditions: Flood, 250 g ai/ha; 0 to 100 scale where 0 is no effect and 100 is complete control
Protocol: (§1) Plant species in the flooded paddy test selected from rice (Oryza sativa), sedge, umbrella (small-flower umbrella sedge, Cyperus difformis), (Heteranthera limosa), and barnyardgrass (Echinochloa crus-galli) were grown to the 2-leaf stage for testing. At time of treatment, test pots were flooded to 3 cm above the soil surface, treated by application of test compounds directly to the paddy water, and then maintained at that water depth for the duration of the test. Treated plants and controls were maintained in a greenhouse for 13 to 15 days, after which time all species were compared to controls and visually evaluated. Plant response ratings, summarized in Table B, are based on a scale of 0 to 100 where 0 is no effect and 100 is complete control. A dash (-) response means no test result.

wheat [1] = assay: Test A preemergence; type: in vivo, Triticum aestivum; conditions: for Wheat plant response rating (0 to 100 scale): 125 g ai/ha; for Wheat plant response rating: 500 g ai/ha, 0 to 100 scale where 0 is no effect and 100 is complete control
Excerpt: (§2) Seeds of plant species selected from barnyardgrass (Echinochloa crus-galli), kochia (Kochia scoparia), ragweed (common ragweed, Ambrosia elatior), Italian ryegrass (Lolium multiflorum), large (Lg) crabgrass (Digitaria sanguinalis), giant foxtail (Setaria faberii), morningglory (Ipomoea spp.), pigweed (Amaranthus retroflexus), velvetleaf (Abutilon theophrasti), wheat (Triticum aestivum), and corn (Zea mays) were planted into a blend of loam soil and sand and treated preemergence with a directed soil spray using test chemicals formulated in a non-phytotoxic solvent mixture which included a surfactant.
(§3) At the same time, plants selected from these crop and weed species and also blackgrass (Alopecurus myosuroides), and galium (catchweed bedstraw, Galium aparine) were planted in pots containing the same blend of loam soil and sand and treated with postemergence applications of test chemicals formulated in the same manner. Plants ranged in height from 2 to 10 cm and were in the one- to two-leaf stage for the postemergence treatment. Treated plants and untreated controls were maintained in a greenhouse for approximately 10 days, after which time all treated plants were compared to untreated controls and visually evaluated for injury. Plant response ratings, summarized in Table A, are based on a 0 to 100 scale where 0 is no effect and 100 is complete control. A dash (-) response means no test result.

morningglory [2] = assay: Test A preemergence; type: in vivo, Ipomoea spp.; conditions: for Morningglory plant response rating (0 to 100 scale): 125 g ai/ha; for Morningglory plant response rating: 500 g ai/ha, 0 to 100 scale where 0 is no effect and 100 is complete control
Excerpt: as §2, §3

rice = assay: Test B flooded paddy test; type: in vivo, Oryza sativa; conditions: Flood, 250 g ai/ha; 0 to 100 scale where 0 is no effect and 100 is complete control
In short: (§4)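 Compound added straight to paddy water, with pots kept flooded 3 cm above soil, on plants grown to the 2-leaf stage. Visual scoring 0-100 (100 = complete control) against untreated controls after 13 to 15 greenhouse days.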

wheat [3] = assay: Test A postemergence; type: in vivo, Triticum aestivum
In short: (§5)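 Greenhouse pot test, loam/sand soil. Formulation: non-phytotoxic solvent mix plus surfactant. Pre: directed spray onto soil after sowing. Post: plants at 1–2 leaf, 2–10 cm. Rated visually vs untreated controls at ~10 d, 0 (no effect) to 100 (complete control).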

barnyardgrass [4] = assay: Test A preemergence; type: in vivo, Echinochloa crus-galli; conditions: for Barnyardgrass plant response rating (0 to 100 scale, 0 is no effect, 100 is complete control): 125 g ai/ha; for Barnyardgrass plant response rating: 500 g ai/ha, 0 to 100 scale where 0 is no effect and 100 is complete control
In short: as §5

large (Lg) crabgrass [5] = assay: Test A preemergence; type: in vivo, Digitaria sanguinalis; conditions: for Crabgrass, Large plant response rating (0 to 100 scale): 125 g ai/ha; for Crabgrass, Large plant response rating: 500 g ai/ha, 0 to 100 scale where 0 is no effect and 100 is complete control
In short: as §5

morningglory [6] = assay: Test A postemergence; type: in vivo, Ipomoea spp.
In short: as §5

large (Lg) crabgrass [7] = assay: Test A postemergence; type: in vivo, Digitaria sanguinalis
Excerpt: as §2, §3

pigweed [8] = assay: Test A postemergence; type: in vivo, Amaranthus retroflexus
In short: as §5

velvetleaf [9] = assay: Test A postemergence; type: in vivo, Abutilon theophrasti
Excerpt: as §2, §3

giant foxtail [10] = assay: Test A preemergence; type: in vivo, Setaria faberii; conditions: for Foxtail, Giant plant response rating (0 to 100 scale): 125 g ai/ha; for Foxtail, Giant plant response rating: 500 g ai/ha, 0 to 100 scale where 0 is no effect and 100 is complete control
Excerpt: as §2, §3

barnyardgrass [11] = assay: Test A postemergence; type: in vivo, Echinochloa crus-galli
Excerpt: as §2, §3

pigweed [12] = assay: Test A preemergence; type: in vivo, Amaranthus retroflexus; conditions: for Pigweed plant response rating (0 to 100 scale): 125 g ai/ha; for Pigweed plant response rating: 500 g ai/ha, 0 to 100 scale where 0 is no effect and 100 is complete control
Excerpt: as §2, §3

corn [13] = assay: Test A postemergence; type: in vivo, Zea mays
In short: as §5

corn [14] = assay: Test A preemergence; type: in vivo, Zea mays; conditions: for Corn plant response rating (0 to 100 scale): 125 g ai/ha; for Corn plant response rating: 500 g ai/ha, 0 to 100 scale where 0 is no effect and 100 is complete control
In short: as §5

velvetleaf [15] = assay: Test A preemergence; type: in vivo, Abutilon theophrasti; conditions: for Velvetleaf plant response rating (0 to 100 scale): 125 g ai/ha; for Velvetleaf plant response rating: 500 g ai/ha, 0 to 100 scale where 0 is no effect and 100 is complete control
Excerpt: as §2, §3

barnyardgrass [16] = assay: Test B flooded paddy test; type: in vivo, Echinochloa crus-galli; conditions: Flood, 250 g ai/ha; 0 to 100 scale where 0 is no effect and 100 is complete control
Protocol: as §1

giant foxtail [17] = assay: Test A postemergence; type: in vivo, Setaria faberii
Excerpt: as §2, §3

Heteranthera limosa = assay: Test B flooded paddy test; type: in vivo; conditions: Flood, 250 g ai/ha; 0 to 100 scale where 0 is no effect and 100 is complete control
In short: as §4

[18] = 125 g ai/ha, 0 to 100 scale where 0 is no effect and 100 is complete control
[19] = 500 g ai/ha, 0 to 100 scale where 0 is no effect and 100 is complete control
[20] = 125 g ai/ha, 0 to 100 scale, 0 no effect, 100 complete control

SMILES	Plant response rating, Sedge, Umbrella (sedge, umbrella)	Wheat plant response rating (0 to 100 scale) (wheat [1])	Wheat plant response rating (wheat [1])	Morningglory plant response rating (0 to 100 scale) (morningglory [2])	Morningglory plant response rating (morningglory [2])	Plant response rating, Rice (rice)	Plant response rating, Wheat (wheat [3]; [19])	Barnyardgrass plant response rating (0 to 100 scale, 0 is no effect, 100 is complete control) (barnyardgrass [4])	Barnyardgrass plant response rating (barnyardgrass [4])	Crabgrass, Large plant response rating (0 to 100 scale) (large (Lg) crabgrass [5])	Crabgrass, Large plant response rating (large (Lg) crabgrass [5])	Plant response rating, Morningglory (morningglory [6]; [19])	Plant response rating, Crabgrass, Large (large (Lg) crabgrass [7]; [19])	Plant response rating, Pigweed (pigweed [8]; [19])	Plant response rating, Velvetleaf (velvetleaf [9]; [19])	Foxtail, Giant plant response rating (0 to 100 scale) (giant foxtail [10])	Foxtail, Giant plant response rating (giant foxtail [10])	Plant response rating, Barnyardgrass (barnyardgrass [11]; [19])	Pigweed plant response rating (0 to 100 scale) (pigweed [12])	Pigweed plant response rating (pigweed [12])	also measured
COC(=O)c1cccc(Oc2ncc(Cl)cn2)c1-n1cc(Br)cn1 [Compound 211]	0	0	0	20	70	0	0	0	60	80	100	100	50	100	90	100	100	50	90	100	Wheat plant response rating (wheat [3]; [18]): 0; Morningglory plant response rating (morningglory [6]; [18]): 90; Crabgrass, Large plant response rating (large (Lg) crabgrass [7]; [18]): 10; Pigweed plant response rating (pigweed [8]; [18]): 90; Velvetleaf plant response rating (velvetleaf [9]; [18]): 50; Barnyardgrass plant response rating (barnyardgrass [11]; [18]): 10; Corn plant response rating (corn [13]; [18]): 0; Plant response rating, Corn (corn [13]; [19]): 0; Corn plant response rating (0 to 100 scale) (corn [14]): 0; Corn plant response rating (corn [14]): 0; Velvetleaf plant response rating (0 to 100 scale) (velvetleaf [15]): 60; Velvetleaf plant response rating (velvetleaf [15]): 90; Plant response rating, Barnyardgrass (barnyardgrass [16]): 0; Foxtail, Giant plant response rating (giant foxtail [17]; [18]): 30; Plant response rating, Foxtail, Giant (giant foxtail [17]; [19]): 60; Plant response rating, Ducksalad (Heteranthera limosa): 0
NN=Cc1cccc(Oc2ncc(Cl)cn2)c1-n1cc(Br)cn1 [Compound 288]	0	0	0	0	0	0	0	0	10	0	10	40	20	100	30	0	0	10	20	90	Plant response rating, Wheat (wheat [3]; [20]): 0; Plant response rating, Morningglory (morningglory [6]; [20]): 20; Plant response rating, Crabgrass, Large (large (Lg) crabgrass [7]; [20]): 10; Plant response rating, Pigweed (pigweed [8]; [20]): 90; Plant response rating, Velvetleaf (velvetleaf [9]; [20]): 20; Plant response rating, Barnyardgrass (barnyardgrass [11]; [20]): 0; Plant response rating, Corn (corn [13]; [20]): 0; Plant response rating, Corn (corn [13]; [19]): 10; Corn plant response rating (0 to 100 scale) (corn [14]): 0; Corn plant response rating (corn [14]): 0; Velvetleaf plant response rating (0 to 100 scale) (velvetleaf [15]): 0; Velvetleaf plant response rating (velvetleaf [15]): 10; Plant response rating, Barnyardgrass (barnyardgrass [16]): 0; Plant response rating, Foxtail, Giant (giant foxtail [17]; [20]): 10; Plant response rating, Foxtail, Giant (giant foxtail [17]; [19]): 20; Plant response rating, Ducksalad (Heteranthera limosa): 0

Reference: patent US9695155B2, “Herbicidal substituted pyrimidinyloxy benzene compounds” (E. I. DU PONT DE NEMOURS AND COMPANY, priority 2013, dated 2017)
